Assay results: ChEMBL document CHEMBL3217463, “Design, synthesis and biological evaluation of -lactam hydroxamate based TACE inhibitors” (Medchemcomm, 2011)
Values belong to the compound of their own block, whether it stands above or below them.

Key:
[1] = test system: Blood; assay: Antiinflammatory activity in human whole blood assessed as inhibition of LPS-induced TNFalpha secretion by ELISA; assay type: functional, tissue-based
[2] = test system: Rattus norvegicus; assay: Toxicity in Wistar rat assessed as total bilirubin at 100 mg/kg, po bid for 28 days (reference value: 0.14 +/- 0.01 mg/dL); assay type: organism-based; set-up: dose 100 mg/kg, route oral; conditions: in vivo, 672 h
[3] = test system: Rattus norvegicus; assay: Toxicity in Wistar rat assessed as alanine aminotransferase at 100 mg/kg, po bid for 28 days (reference value: 20.78 +/- 1.31 U/L); assay type: organism-based; set-up: dose 100 mg/kg, route oral; conditions: in vivo, 672 h
[4] = test system: Rattus norvegicus; assay: Toxicity in Wistar rat assessed as aspartate aminotransferase at 100 mg/kg, po bid for 28 days (reference value: 147.16 +/- 11.75 U/L); assay type: organism-based; set-up: dose 100 mg/kg, route oral; conditions: in vivo, 672 h
[5] = test system: Rattus norvegicus; assay: Toxicity in Wistar rat assessed as alkaline phosphatase at 100 mg/kg, po bid for 28 days (reference value: 134.66 +/- 5.3 U/L); assay type: organism-based; set-up: dose 100 mg/kg, route oral; conditions: in vivo, 672 h
[6] = test system: Rattus norvegicus; assay: Toxicity in Wistar rat assessed as RBC count at 100 mg/kg, po bid for 28 days (reference value: 7.38 +/- 0.11 10^6/ul); assay type: organism-based; set-up: dose 100 mg/kg, route oral; conditions: in vivo, 672 h
[7] = test system: Rattus norvegicus; assay: Toxicity in Wistar rat assessed as WBC count at 100 mg/kg, po bid for 28 days (reference value: 8.20 +/- 0.33 10^3/ul); assay type: organism-based; set-up: dose 100 mg/kg, route oral; conditions: in vivo, 672 h
[8] = biological target: T1, Disintegrin and metalloproteinase domain-containing protein 17 (Homo sapiens, UniProt P78536); assay: Inhibition of human catalytic domain of TACE assessed as inhibit the cleavage of the substrate by fluorescence-based FRET assay
[9] = biological target: T2, Disintegrin and metalloproteinase domain-containing protein 10 (Homo sapiens, UniProt O14672); assay: Inhibition of ADAM10 (unknown origin) using fluorescent substrate by fluorescence-based FRET assay
T2 sequence (O14672 whole entry): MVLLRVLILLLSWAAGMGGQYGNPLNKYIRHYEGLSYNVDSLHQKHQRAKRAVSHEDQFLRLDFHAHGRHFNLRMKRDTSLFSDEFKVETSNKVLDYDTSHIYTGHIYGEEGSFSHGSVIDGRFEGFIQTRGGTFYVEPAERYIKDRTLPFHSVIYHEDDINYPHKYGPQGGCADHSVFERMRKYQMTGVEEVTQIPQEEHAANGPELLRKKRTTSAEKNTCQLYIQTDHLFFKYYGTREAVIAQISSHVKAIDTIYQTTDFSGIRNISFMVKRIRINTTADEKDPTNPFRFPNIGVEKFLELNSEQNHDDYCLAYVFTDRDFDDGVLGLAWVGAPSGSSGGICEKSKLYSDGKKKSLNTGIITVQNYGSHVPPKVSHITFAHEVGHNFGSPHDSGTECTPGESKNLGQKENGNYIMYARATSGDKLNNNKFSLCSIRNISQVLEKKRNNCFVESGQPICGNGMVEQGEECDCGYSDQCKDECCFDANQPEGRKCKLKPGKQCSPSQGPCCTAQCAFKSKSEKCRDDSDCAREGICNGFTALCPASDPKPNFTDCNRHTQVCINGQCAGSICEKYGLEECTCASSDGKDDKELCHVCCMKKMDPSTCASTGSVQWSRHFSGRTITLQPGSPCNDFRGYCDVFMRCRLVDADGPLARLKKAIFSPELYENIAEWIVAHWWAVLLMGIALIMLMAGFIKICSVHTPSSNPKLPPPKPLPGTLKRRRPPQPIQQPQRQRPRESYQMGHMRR

[10] = biological target: T3, Interstitial collagenase (Homo sapiens, UniProt P03956); assay: Inhibition of MMP1 (unknown origin) by fluorescence-based FRET assay
T3 sequence (P03956 whole entry): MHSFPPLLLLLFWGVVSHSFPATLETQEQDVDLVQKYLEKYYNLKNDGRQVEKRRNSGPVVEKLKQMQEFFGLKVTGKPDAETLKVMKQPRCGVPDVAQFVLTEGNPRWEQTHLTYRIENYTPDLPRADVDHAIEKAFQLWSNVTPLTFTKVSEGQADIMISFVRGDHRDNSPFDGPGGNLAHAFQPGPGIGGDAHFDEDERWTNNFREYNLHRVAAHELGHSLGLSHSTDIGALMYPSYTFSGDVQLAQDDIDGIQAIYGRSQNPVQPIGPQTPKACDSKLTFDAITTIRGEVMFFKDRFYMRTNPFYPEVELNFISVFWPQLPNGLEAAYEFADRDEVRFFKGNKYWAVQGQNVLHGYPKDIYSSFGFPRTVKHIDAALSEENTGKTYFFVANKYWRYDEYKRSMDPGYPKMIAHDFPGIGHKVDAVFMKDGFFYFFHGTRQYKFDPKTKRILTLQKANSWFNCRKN

[11] = biological target: 72 kDa type IV collagenase (Homo sapiens, UniProt P08253); assay: Inhibition of MMP2 (unknown origin) by fluorescence-based FRET assay
[12] = biological target: Stromelysin-1 (Homo sapiens, UniProt P08254); assay: Inhibition of MMP3 (unknown origin) by fluorescence-based FRET assay
[13] = biological target: T4, Matrilysin (Homo sapiens, UniProt P09237); assay: Inhibition of MMP7 (unknown origin) by fluorescence-based FRET assay
T4 sequence (P09237 whole entry): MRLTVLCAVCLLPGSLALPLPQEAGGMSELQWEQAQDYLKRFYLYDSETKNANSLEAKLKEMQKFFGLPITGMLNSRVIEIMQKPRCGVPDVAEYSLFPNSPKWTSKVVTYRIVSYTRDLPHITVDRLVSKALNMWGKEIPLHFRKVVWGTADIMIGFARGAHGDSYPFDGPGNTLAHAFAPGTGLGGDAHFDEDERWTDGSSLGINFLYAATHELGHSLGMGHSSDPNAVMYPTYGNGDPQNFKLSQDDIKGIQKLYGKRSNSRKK

[14] = biological target: Neutrophil collagenase (Homo sapiens, UniProt P22894); assay: Inhibition of MMP8 (unknown origin) by fluorescence-based FRET assay
[15] = biological target: Matrix metalloproteinase-9 (Homo sapiens, UniProt P14780); assay: Inhibition of MMP9 (unknown origin) by fluorescence-based FRET assay
[16] = biological target: Collagenase 3 (Homo sapiens, UniProt P45452); assay: Inhibition of MMP13 (unknown origin) by fluorescence-based FRET assay
[17] = biological target: Matrix metalloproteinase-14 (Homo sapiens, UniProt P50281); assay: Inhibition of MMP14 (unknown origin) by fluorescence-based FRET assay
[18] = biological target: T1, Disintegrin and metalloproteinase domain-containing protein 17; assay: Ratio of IC50 for human catalytic domain of TACE to IC50 for ADAM10 (unknown origin)
[19] = test system: Mus musculus; assay: Antiinflammatory activity in po dosed Swiss Albino mouse assessed as inhibition of LPS-induced TNFalpha secretion in blood treated 0.5 hrs before LPS and measured after 1 hr of LPS stimulus by ELISA; assay type: functional
[20] = Half life in Wistar rat at 5 mg/kg, iv; assay type: ADME, organism-based; set-up: dose 5 mg/kg, route intravenous; conditions: in vivo
[21] = Elimination rate constant in Wistar rat at 5 mg/kg, iv; assay type: ADME, organism-based; set-up: dose 5 mg/kg, route intravenous; conditions: in vivo
[22] = AUC in Wistar rat at 5 mg/kg, iv; assay type: ADME, organism-based; set-up: dose 5 mg/kg, route intravenous; conditions: plasma
[23] = Tmax in Wistar rat at 5 mg/kg, po; assay type: ADME, organism-based; set-up: dose 5 mg/kg, route oral; conditions: in vivo
[24] = Half life in Wistar rat at 5 mg/kg, po; assay type: ADME, organism-based; set-up: dose 5 mg/kg, route oral; conditions: Wistar, in vivo
[25] = Elimination rate constant in Wistar rat at 5 mg/kg, po; assay type: ADME, organism-based; set-up: dose 5 mg/kg, route oral; conditions: Wistar, in vivo
[26] = AUC in Wistar rat at 5 mg/kg, po; assay type: ADME, organism-based; set-up: dose 5 mg/kg, route oral; conditions: plasma
[27] = Oral bioavailability in Wistar rat at 5 mg/kg; assay type: ADME, organism-based; conditions: in vivo
[28] = test system: Rattus norvegicus; assay: Toxicity in Wistar rat assessed as survival at 100 mg/kg, po bid for 28 days; assay type: organism-based; set-up: dose 100 mg/kg, route oral; conditions: in vivo, 672 h
[29] = test system: Rattus norvegicus; assay: Toxicity in Wistar rat assessed as adverse changes at 100 mg/kg, po bid for 28 days; assay type: organism-based; set-up: dose 100 mg/kg, route oral; conditions: in vivo, 672 h
[30] = test system: Rattus norvegicus; assay: Toxicity in Wistar rat assessed as body weight at 100 mg/kg, po bid for 28 days; assay type: organism-based; set-up: dose 100 mg/kg, route oral; conditions: in vivo, 672 h
[31] = test system: Rattus norvegicus; assay: Toxicity in Wistar rat assessed as food consumption at 100 mg/kg, po bid for 28 days; assay type: organism-based; set-up: dose 100 mg/kg, route oral; conditions: in vivo, 672 h
[32] = test system: Rattus norvegicus; assay: Toxicity in Wistar rat assessed as relative heart weight at 100 mg/kg, po bid for 28 days (reference value: 0.345 +/- 0.007 %); assay type: organism-based; set-up: dose 100 mg/kg, route oral; conditions: in vivo, 672 h
[33] = test system: Rattus norvegicus; assay: Toxicity in Wistar rat assessed as relative liver weight at 100 mg/kg, po bid for 28 days (reference value: 3.659 +/- 0.1 %); assay type: organism-based; set-up: dose 100 mg/kg, route oral; conditions: in vivo, 672 h
[34] = test system: Rattus norvegicus; assay: Toxicity in Wistar rat assessed as relative kidney weight at 100 mg/kg, po bid for 28 days (reference value: 0.821 +/- 0.03 %); assay type: organism-based; set-up: dose 100 mg/kg, route oral; conditions: in vivo, 672 h
[35] = test system: Rattus norvegicus; assay: Toxicity in Wistar rat assessed as relative spleen weight at 100 mg/kg, po bid for 28 days (reference value: 0.201+/- 0.007 %); assay type: organism-based; set-up: dose 100 mg/kg, route oral; conditions: in vivo, 672 h
[36] = test system: Rattus norvegicus; assay: Toxicity in Wistar rat assessed as relative brain weight at 100 mg/kg, po bid for 28 days (reference value: 0.727+/- 0.024 %); assay type: organism-based; set-up: dose 100 mg/kg, route oral; conditions: in vivo, 672 h

T1 sequence (P78536 whole entry, the tested form may be a part): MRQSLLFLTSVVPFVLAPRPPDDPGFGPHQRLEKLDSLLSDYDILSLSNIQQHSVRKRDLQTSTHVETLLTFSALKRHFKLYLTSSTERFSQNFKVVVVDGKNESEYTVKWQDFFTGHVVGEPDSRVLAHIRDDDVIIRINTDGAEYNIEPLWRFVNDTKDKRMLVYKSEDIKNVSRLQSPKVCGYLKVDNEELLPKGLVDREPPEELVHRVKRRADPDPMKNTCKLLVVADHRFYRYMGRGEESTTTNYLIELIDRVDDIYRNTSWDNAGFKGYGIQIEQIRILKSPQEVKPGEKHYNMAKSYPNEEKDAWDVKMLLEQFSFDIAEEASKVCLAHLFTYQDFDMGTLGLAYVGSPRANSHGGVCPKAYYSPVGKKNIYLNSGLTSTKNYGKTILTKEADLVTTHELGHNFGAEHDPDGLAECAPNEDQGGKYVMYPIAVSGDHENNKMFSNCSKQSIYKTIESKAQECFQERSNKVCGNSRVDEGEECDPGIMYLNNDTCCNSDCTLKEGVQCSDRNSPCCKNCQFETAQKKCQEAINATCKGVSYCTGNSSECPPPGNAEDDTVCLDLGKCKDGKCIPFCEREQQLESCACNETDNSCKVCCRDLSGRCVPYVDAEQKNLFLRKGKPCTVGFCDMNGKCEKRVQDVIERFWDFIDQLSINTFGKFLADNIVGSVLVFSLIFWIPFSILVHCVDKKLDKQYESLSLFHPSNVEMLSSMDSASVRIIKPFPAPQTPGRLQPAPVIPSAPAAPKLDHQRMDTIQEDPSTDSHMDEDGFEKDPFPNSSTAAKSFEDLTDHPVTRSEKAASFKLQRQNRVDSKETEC
Neutrophil collagenase, sequence (P22894 whole entry): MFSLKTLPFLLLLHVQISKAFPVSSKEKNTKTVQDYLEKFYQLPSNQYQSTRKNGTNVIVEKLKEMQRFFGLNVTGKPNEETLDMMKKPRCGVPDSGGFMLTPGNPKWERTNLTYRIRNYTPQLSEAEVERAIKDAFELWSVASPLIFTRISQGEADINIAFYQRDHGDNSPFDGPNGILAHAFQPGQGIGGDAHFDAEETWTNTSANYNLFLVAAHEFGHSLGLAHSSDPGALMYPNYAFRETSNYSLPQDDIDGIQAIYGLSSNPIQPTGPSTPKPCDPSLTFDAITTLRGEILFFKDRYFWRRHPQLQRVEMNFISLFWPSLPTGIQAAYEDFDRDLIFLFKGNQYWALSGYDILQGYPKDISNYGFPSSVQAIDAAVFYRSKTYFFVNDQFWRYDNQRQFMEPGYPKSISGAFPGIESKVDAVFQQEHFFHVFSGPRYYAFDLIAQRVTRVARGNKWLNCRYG
72 kDa type IV collagenase, sequence (P08253 whole entry): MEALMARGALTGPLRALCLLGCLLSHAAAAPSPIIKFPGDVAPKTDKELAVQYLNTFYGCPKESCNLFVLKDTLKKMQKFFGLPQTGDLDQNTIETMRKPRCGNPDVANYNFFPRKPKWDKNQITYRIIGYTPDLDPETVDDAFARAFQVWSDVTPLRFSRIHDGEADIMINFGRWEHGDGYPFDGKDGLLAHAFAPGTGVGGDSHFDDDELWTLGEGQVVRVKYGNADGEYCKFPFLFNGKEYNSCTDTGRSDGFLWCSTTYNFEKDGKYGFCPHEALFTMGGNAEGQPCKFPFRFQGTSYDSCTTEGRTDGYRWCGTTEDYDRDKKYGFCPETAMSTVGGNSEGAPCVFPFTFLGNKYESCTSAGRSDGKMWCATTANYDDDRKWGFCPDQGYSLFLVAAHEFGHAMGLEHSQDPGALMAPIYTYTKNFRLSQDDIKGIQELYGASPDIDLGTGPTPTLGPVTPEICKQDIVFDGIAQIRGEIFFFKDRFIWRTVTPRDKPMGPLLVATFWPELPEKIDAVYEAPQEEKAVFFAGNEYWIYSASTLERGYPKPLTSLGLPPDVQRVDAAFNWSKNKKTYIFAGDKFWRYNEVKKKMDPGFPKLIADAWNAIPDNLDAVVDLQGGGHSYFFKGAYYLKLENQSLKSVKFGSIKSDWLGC
Stromelysin-1, sequence (P08254 whole entry): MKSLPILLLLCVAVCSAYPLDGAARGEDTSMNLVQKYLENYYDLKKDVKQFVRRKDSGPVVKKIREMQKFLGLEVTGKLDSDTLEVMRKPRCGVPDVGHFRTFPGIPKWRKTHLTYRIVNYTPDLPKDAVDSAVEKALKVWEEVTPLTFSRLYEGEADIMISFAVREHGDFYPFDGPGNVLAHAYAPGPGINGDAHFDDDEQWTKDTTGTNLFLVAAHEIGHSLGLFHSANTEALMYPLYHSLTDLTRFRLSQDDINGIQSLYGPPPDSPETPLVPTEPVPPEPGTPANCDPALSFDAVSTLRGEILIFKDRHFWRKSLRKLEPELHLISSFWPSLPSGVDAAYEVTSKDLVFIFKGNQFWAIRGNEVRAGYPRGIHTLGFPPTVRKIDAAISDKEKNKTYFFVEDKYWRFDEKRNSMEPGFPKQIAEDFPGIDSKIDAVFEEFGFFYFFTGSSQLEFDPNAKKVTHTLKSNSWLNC
Matrix metalloproteinase-9, sequence (P14780 whole entry): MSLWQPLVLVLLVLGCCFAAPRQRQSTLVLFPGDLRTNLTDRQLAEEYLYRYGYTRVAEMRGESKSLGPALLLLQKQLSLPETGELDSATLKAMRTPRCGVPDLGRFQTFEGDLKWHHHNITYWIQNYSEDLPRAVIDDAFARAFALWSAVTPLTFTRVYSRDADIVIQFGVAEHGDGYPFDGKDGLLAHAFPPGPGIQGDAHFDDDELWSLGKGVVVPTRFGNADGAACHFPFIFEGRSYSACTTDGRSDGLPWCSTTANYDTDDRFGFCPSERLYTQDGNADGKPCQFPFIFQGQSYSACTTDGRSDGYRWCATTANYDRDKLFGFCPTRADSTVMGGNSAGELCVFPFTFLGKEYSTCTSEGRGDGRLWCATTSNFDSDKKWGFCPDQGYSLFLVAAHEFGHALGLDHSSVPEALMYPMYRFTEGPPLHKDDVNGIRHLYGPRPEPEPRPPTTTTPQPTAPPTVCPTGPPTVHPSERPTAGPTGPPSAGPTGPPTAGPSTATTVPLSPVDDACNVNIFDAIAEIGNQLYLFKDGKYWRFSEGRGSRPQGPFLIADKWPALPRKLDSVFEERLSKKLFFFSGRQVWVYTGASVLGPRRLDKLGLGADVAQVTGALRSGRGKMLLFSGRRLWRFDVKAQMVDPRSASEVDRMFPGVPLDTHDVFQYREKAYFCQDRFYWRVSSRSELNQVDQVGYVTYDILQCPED

IC50 [1]: 4000 nM
SMILES: CC(C)C[C@H](C(=O)NO)N1CC[C@@](N)(c2ccc(OCc3cc(-c4ccc(OCc5ccccc5)cc4)nc4ccccc34)cc2)C1=O

IC50 [1]: 170 nM
SMILES: CC(C)C[C@H](C(=O)NO)N1CC[C@@](N)(c2ccc(OCc3cc(C4CC4)nc4ccccc34)cc2)C1=O

IC50 [1]: 111 nM
SMILES: CCc1cc(COc2ccc([C@]3(N)CCN([C@H](CC(C)C)C(=O)NO)C3=O)cc2)c2ccccc2n1

IC50 [1]: 3050 nM
SMILES: COCc1cc(COc2ccc([C@]3(NC(=O)OC(C)(C)C)CCN([C@H](CC(C)C)C(=O)NO)C3=O)cc2)c2ccccc2n1

IC50 [1]: 250 nM
SMILES: COc1ccc(-c2cc(COc3ccc([C@]4(N)CCN([C@H](CC(C)C)C(=O)NO)C4=O)cc3)c3ccccc3n2)cc1

IC50 [1]: 470 nM
SMILES: CC(C)C[C@H](C(=O)NO)N1CC[C@@](N)(c2ccc(OCc3cc(C(F)(F)F)nc4ccccc34)cc2)C1=O

IC50 [1]: 3000 nM
SMILES: COCc1cc(COc2ccc([C@]3(N)CCN([C@H](CC(C)C)C(=O)OC)C3=O)cc2)c2ccccc2n1

SMILES: Cc1cc(COc2ccc([C@]3(N)CCN([C@H](CC(C)C)C(=O)NO)C3=O)cc2)c2ccccc2n1
Activity [2]: 0.79 mg/dL | Activity [3]: 39.22 U/L | Activity [4]: 457.21 U/L | Activity [5]: 523.43 U/L | IC50 [1]: 60 nM | Activity [6]: 7.69 ×10⁶ /uL | Activity [7]: 8.99 ×10³ /uL | IC50 [8]: 12 nM | IC50 [9]: 480 nM | IC50 [10]: 429 nM | IC50 [11]: 482 nM | IC50 [12]: 285 nM | IC50 [13]: 466 nM | IC50 [14]: 299 nM | IC50 [15]: 389 nM | IC50 [16]: 461 nM | IC50 [17]: 499 nM | Ratio IC50 [18]: 40 | ED50 [19]: 6.9 mg/kg | half-life [20]: 2.69 h | k el [21]: 8.33e-05 s⁻¹ | AUC [22]: 32400 ng·h/mL | Tmax [23]: 1.21 h | half-life [24]: 8.67 h | k el [25]: 2.22e-05 s⁻¹ | AUC [26]: 5970 ng·h/mL | bioavailability [27]: 18.4% | Activity [28]: Non-toxic | Activity [29]: Non-toxic | Activity [30]: Non-toxic | Activity [31]: Non-toxic | Activity [32]: 0.351% | Activity [33]: 4.993% | Activity [34]: 0.831% | Activity [35]: 0.211% | Activity [36]: 0.714%

IC50 [1]: 3230 nM
SMILES: COCc1cc(COc2ccc([C@]3(N)CCN([C@H](CC(C)C)C(=O)O)C3=O)cc2)c2ccccc2n1

IC50 [1]: 3880 nM
SMILES: Cc1cccc(-c2cc(COc3ccc([C@]4(N)CCN([C@H](CC(C)C)C(=O)NO)C4=O)cc3)c3ccccc3n2)c1

IC50 [1]: 140 nM
SMILES: CC(C)C[C@H](C(=O)NO)N1CC[C@@](N)(c2ccc(OCc3cc(C(C)C)nc4ccccc34)cc2)C1=O
